# Assay results reported in US20170007595A1, “NSD3 INHIBITORS FOR TREATMENT OF CANCERS” (THE BRIGHAM AND WOMEN'S HOSPITAL, INC., priority 2014, published 2017).
# T1: NSD3 (endogenous, wild type) (human, UniProt Q9BZ95 1-1437, limits assumed)
# T1 construct: Endogenous protein of cell lysates detected with an anti-NSD3 antibody; also called wild type NSD3; WHSC1L1
# T1 sequence: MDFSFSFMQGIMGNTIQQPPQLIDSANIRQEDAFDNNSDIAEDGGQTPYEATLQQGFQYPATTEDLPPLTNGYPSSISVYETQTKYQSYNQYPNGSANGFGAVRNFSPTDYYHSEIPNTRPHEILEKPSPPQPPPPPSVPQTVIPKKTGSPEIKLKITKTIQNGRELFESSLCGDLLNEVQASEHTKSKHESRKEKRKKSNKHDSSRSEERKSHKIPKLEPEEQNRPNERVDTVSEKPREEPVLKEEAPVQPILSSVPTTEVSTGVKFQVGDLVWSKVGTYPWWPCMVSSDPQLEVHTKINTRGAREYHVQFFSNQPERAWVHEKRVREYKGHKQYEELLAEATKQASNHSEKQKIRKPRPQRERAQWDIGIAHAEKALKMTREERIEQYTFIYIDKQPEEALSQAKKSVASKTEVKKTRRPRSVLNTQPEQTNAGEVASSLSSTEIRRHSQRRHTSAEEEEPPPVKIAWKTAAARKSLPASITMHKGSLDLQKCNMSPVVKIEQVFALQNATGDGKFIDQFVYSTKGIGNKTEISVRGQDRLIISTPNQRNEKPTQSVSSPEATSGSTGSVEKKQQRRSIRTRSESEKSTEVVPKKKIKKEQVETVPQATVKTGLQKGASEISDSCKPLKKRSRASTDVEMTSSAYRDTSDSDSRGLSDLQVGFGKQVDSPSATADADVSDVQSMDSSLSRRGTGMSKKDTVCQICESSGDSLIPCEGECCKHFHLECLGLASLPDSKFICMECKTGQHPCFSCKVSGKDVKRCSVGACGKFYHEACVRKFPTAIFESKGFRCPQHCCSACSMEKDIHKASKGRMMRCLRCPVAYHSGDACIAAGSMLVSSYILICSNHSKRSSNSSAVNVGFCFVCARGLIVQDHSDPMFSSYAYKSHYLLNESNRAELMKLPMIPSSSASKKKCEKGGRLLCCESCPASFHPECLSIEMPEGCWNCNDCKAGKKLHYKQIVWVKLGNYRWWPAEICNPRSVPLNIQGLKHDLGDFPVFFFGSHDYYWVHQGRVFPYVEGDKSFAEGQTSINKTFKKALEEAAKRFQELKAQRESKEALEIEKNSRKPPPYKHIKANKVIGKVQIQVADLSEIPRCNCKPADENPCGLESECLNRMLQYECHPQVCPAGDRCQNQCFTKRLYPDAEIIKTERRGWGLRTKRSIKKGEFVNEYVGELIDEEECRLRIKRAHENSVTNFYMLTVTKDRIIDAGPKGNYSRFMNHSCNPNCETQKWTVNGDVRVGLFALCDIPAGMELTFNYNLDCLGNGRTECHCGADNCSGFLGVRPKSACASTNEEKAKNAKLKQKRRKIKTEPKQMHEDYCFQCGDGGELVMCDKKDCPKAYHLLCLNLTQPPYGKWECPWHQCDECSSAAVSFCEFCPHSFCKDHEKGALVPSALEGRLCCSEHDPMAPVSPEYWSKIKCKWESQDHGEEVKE
# B1: HA-tagged NUT (full length) (other)
# chain: MASDGASALPGPDMSMKPSAALSPSPALPFLPPTSDPPDHPPREPPPQPIMPSVFSPDNPLMLSAFPSSLLVTGDGGPCLSGAGAGKVIVRVKTEGGSAEPSQTQNFILTQTALNSTAPGTPCGGLEGPAPPFVTASNVKTILPSKAVGVSQEGPPGLPPQPPPPVAQLVPIVPLEKAWPGPHGTTGEGGPVATLSKPSLGDRSKISKDVYENFRQWQRYKALARRHLSQSPDTEALSCFLIPVLRSLARLKPTMTLEEGLPLAVQEWEHTSNFDRMIFYEMAERFMEFEAEEMQIQNTQLMNGSQGLSPATPLKLDPLGPLASEVCQQPVYIPKKAASKTRAPRRRQRKAQRPPAPEAPKEIPPEAVKEYVDIMEWLVGTHLATGESDGKQEEEGQQQEEEGMYPDPGLLSYINELCSQKVFVSKVEAVIHPQFLADLLSPEKQRDPLALIEELEQEEGLTLAQLVQKRLMALEEEEDAEAPPSFSGAQLDSSPSGSVEDEDGDGRLRPSPGLQGAGGAACLGKVSSSGKRAREVHGGQEQALDSPRGMHRDGNTLPSPSSWDLQPELAAPQGTPGPLGVERRGSGKVINQVSLHQDGHLGGAGPPGHCLVADRTSEALPLCWQGGFQPESTPSLDAGLAELAPLQGQGLEKQVLGLQKGQQTGGRGVLPQGKEPLAVPWEGSSGAMWGDDRGTPMAQSYDQNPSPRAAGERDDVCLSPGVWLSSEMDAVGLELPVQIEEVIESFQVEKCVTEYQEGCQGLGSRGMISLGPGETLVPGDTESSVIPCGGTVAAAALEKRNYCSLPGPLRANSPPLRSKENQEQSCETVGHPSDLWAEGCFPLLESGDSTLGSSKETLPPTCQGNLLIMGTEDASSLPEASQEAGSRGSFSPLLETIEPVNILDVKDDCGLQLRVSEDTCPLNVHSYDPQGEGRVDPDLSKPKNLAPLQESQESYTTGTPKATSSHQGLGSTLPRRGTRNAIVPRETSVSKTHRSADRAKGKEKKKKEAEEEDEELSNFAYLLASKLSLSPREHPLSPHHASGGQGSQRASHLLPAGAKGPSKLPYPVAKSGKRALAGGPAPTEKTPHSGAQLGVPREKPLALGVVRPSQPRKRRCDSFVTGRRKKRRRSQ
# notes: also called HA-NUT; not shown: N-terminal HA tag
# Columns and labels:
# macrophages = conditions: cited from earlier work
# BET Bromodomains = conditions: cited from earlier work
# [1] = system: 1221 cells (NSD3-NUT-positive NMC); experiment: high throughput 384-well immunofluorescence analysis (keratin, Ki-67, cell number) of 1221 NMC cells; format: cell-based, human; conditions: 72 h, dose-dependent
# Procedure: For TC-797, Per403, and 8645 cells, 7×10^6 cells were transfected with 50 nM siRNA using Nucleofector II (Lonza, Basel, Switzerland) and Amaxa solution R and plated in 100 mm cell culture dish. 1221 cells were transfected using RNAi-MAX (Invitrogen) using the manufacturer's protocol. Briefly, reverse transfection procedure was used to deliver 50 nM siRNA to 33×10^4 cells in a 6 well plate. Cells were analyzed for mRNA levels 24 h after transfection. Sequences of siRNA used were: siControl, ON-TARGET plus siRNA #1 (Dharmacon, Cat # D-001810-01-20), siNUT-1 (targeting coding sequence) […] (SEQ ID NO: 57), siNUT-2 (targeting the 3′ UTR) […] (SEQ ID NO: 58), siBRD4 5′ siGENOME Human BRD4 (Dharmacon Cat # D-004937-02), siBRD4 3′ […] (SEQ ID NO: 59), siNSD3-6 ON-TARGETplus Human WHSC1L1 (54904) (Dharmacon Cat # J-012875-06), siNSD3-7, ON-TARGETplus Human WHSC1L1 (54904) siRNA (Dharmacon Cat # J-012875-07), siNSD3 3′-1 […] (SEQ ID NO: 15), si NSD3 3′-2 […] […]
# Cells were transfected in 384 well format using 50 nM control siRNA (above), NSD3 siRNA (above), BRD4 siRNA, and NUT siRNA (above), as described (6), or a dose range of JQ1 treatment. […] Each condition was performed in triplicate in 384-well plate format in three separate experiments, where wells were analyzed using MetaXpress with Multi Wavelength Cell Scoring for cell number, average keratin fluorescence pixel intensity, and % Ki-67 per well. […]
# [2] = target: T1, NSD3 (endogenous, wild type); experiment: anti-HA co-immunoprecipitation from C33A-6TR lysates, Western blot with anti-NSD3
# Procedure: For co-immunoprecipitation experiments of HA-tagged proteins, C33A-6TR cells stably expressing HA-tagged constructs under a Tet-inducible promoter were used. Protein extracts were prepared 24 h after transfection or induction with Doxycycline (1 μg/ml). Cells were lysed in lysis buffer (50 mM Tris-HCl [pH 7.5], 150 mM NaCl, 0.5% Nonidet P-40) with freshly added protease inhibitors (Roche Complete, EDTA free protease inhibitor cocktail, Roche, Indianapolis, Ind.). Extracts were adjusted for protein concentration and 10% of extracts were used as Input Immunoprecipitations were performed using 15 μl of HA-resin (Sigma A2095). Extracts were incubated overnight at 4° C., and precipitated proteins were detected by Western blot analysis.
molecule,measurement,setting,value
CCNC(=O)C[C@@H]1N=C(c2ccc(Cl)cc2)c2cc(OC)ccc2-n2c(C)nnc21 [I-BET-762],production of proinflammatory proteins by macrophages,macrophages,suppresses the production of proinflammatory proteins
O=c1cc(N2CCOCC2)oc2c(-c3ccccc3)cccc12 [LY294002],BET inhibition,BET Bromodomains,reported to be a BET inhibitor
"Cc1sc2c(c1C)C(c1ccc(Cl)cc1)=N[C@@H](CC(=O)OC(C)(C)C)c1nnc(C)n1-2 [JQ1, (S)-tert-butyl 2-(4-(4-chlorophenyl)-2,3,9-trimethyl-6H-thieno[3,2-f][1,2,4]triazolo[4,3-a][1,4]diazepin-6-yl)acetate]",differentiation (keratin intensity),[1]; dose range of JQ1 vs DMSO,results in differentiation
same,proliferation (cell number),[1]; increasing concentrations of JQ1 vs DMSO,arrested proliferation
B1,binding result,[2],no binding
